Measured values from US20260216196A1, “IMIDAZO[1,2-A]PYRIDINE AND IMIDAZO[1,2-A]PYRAZINE DERIVATIVES AS MLLT1 AND MLLT3 INHIBITORS” (DARK BLUE THERAPEUTICS LTD., priority 2022, published 2026).
Where a name gives a salt, the structure may show the parent alone.

Key:
MLLT1 = MLLT1 (Homo sapiens, UniProt Q03111); test: biochemical; details: MLLT1 assay IC50 (nM), HTRF, 6His tagged MLLT1, biotinylated H3K9cro peptide; compound 20 μM to 20 nM, 11 data points in duplicate
MLLT3 = MLLT3 (Homo sapiens, UniProt P42568); test: HTRF IC50 determination assay, MLLT3 / H3K9cro peptide displacement; details: MLLT3 assay IC50 (nM), 6His tagged MLLT3, biotinylated H3K9cro peptide, compound 20 μM to 20 nM, 11 data points in duplicate
Sequence of MLLT3 (P42568 whole entry): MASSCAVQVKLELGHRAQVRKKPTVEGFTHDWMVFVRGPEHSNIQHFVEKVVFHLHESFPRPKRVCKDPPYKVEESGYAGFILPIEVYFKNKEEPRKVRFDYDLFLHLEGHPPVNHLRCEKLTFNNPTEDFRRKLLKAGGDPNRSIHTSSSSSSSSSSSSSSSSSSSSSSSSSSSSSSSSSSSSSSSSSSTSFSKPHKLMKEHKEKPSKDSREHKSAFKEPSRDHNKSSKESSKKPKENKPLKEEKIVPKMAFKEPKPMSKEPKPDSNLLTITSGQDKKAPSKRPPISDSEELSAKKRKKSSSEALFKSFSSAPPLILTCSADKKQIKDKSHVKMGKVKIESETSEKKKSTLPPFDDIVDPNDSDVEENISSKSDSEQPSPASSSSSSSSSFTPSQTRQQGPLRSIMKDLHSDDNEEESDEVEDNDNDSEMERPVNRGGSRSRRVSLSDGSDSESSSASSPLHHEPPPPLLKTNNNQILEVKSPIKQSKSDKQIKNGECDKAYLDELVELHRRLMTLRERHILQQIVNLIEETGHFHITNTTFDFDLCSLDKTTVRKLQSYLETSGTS

Sequence of MLLT1 (Q03111 whole entry): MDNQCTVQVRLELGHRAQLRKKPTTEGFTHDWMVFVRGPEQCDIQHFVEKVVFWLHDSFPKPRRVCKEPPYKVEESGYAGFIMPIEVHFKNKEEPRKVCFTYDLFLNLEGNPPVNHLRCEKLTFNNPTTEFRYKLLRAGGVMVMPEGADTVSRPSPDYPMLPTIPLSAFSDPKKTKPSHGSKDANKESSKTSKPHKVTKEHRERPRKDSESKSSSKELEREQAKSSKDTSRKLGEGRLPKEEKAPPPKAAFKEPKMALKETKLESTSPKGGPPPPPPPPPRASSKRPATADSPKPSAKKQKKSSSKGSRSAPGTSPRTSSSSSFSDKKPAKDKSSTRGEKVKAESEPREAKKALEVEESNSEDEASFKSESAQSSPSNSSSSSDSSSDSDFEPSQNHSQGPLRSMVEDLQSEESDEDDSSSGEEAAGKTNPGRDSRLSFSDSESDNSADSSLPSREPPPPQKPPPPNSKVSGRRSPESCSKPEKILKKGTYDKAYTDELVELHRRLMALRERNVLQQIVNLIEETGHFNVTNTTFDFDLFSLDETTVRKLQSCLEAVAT

CN1CCCC1c1cn2cc(NC(=O)c3ccc4c(c3)nnn4C3CCCCC3)ccc2n1 (racemic) [Example 45, rac-1-cyclohexyl-N-[2-(1-methylpyrrolidin-2-yl)imidazo[1,2-a]pyridin-6-yl]-1H-1,2,3-benzotriazole-5-carboxamide]
IC50 (MLLT1): 150 to 1500 nM | IC50 (MLLT3): 150 to 1500 nM

Cc1ncsc1-c1ccc(C(=O)Nc2ccc3nc(C4CCCN4C)cn3c2)c(F)c1 (single isomer, unassigned) [Example 22]
IC50 (MLLT1): 150 to 1500 nM | IC50 (MLLT3): 1500 to 20000 nM

Cc1nc(NC(=O)c2cc3cnn(C)c3cc2Cl)cn2cc([C@H]3CCCN3C)nc12 [Example 92, (R)-6-chloro-1-methyl-N-(8-methyl-2-(1-methylpyrrolidin-2-yl)imidazo[1,2-a]pyrazin-6-yl)-1H-indazole-5-carboxamide]
IC50 (MLLT1): 1500 to 20000 nM | IC50 (MLLT3): 1500 to 20000 nM

COc1ccc2nc(C(=O)Nc3ccc4nc(C5CCCN5C)cn4c3)sc2c1 (racemic) [Example 17, rac-6-methoxy-N-[2-(1-methylpyrrolidin-2-yl)imidazo[1,2-a]pyridin-6-yl]-1,3-benzothiazole-2-carboxamide]
IC50 (MLLT1): 1500 to 20000 nM | IC50 (MLLT3): 1500 to 20000 nM

Cc1nc(-c2ccc(C(=O)Nc3ccc4nc(C5CCCN5C)cn4c3)cc2)cs1 (racemic) [Example 16, rac-4-(2-methyl-1,3-thiazol-4-yl)-N-[2-(1-methylpyrrolidin-2-yl)imidazo[1,2-a]pyridin-6-yl]benzamide]
IC50 (MLLT1): 150 to 1500 nM | IC50 (MLLT3): 150 to 1500 nM

COc1cc(NC(=O)c2ccc3c(C)nn(C)c3c2)cn2cc(C3CCCN3C)nc12 (racemic) [Example 1, rac-N-[8-methoxy-2-(1-methylpyrrolidin-2-yl)imidazo[1,2-a]pyridin-6-yl]-1,3-dimethyl-indazole-6-carboxamide]
IC50 (MLLT1): 150 to 1500 nM | IC50 (MLLT3): 150 to 1500 nM

CN1CCCC1c1cn2cc(NC(=O)c3ccc4c(c3)c(C3CCCC3)nn4C)ccc2n1 (racemic) [Example 48, rac-3-cyclopentyl-1-methyl-N-[2-(1-methylpyrrolidin-2-yl)imidazo[1,2-a]pyridin-6-yl]-1H-indazole-5-carboxamide]
IC50 (MLLT1): 150 to 1500 nM | IC50 (MLLT3): 150 to 1500 nM

CN1C2CCCCC2C[C@@H]1c1cn2cc(NC(=O)c3ccc4c(cnn4C)c3)ccc2n1 (stereo partly drawn) [Example 58, 1-methyl-N-{2-[(2R)-1-methyl-octahydro-1H-indol-2-yl]imidazo[1,2-a]pyridin-6-yl}-1H-indazole-5-carboxamide]
IC50 (MLLT1): 150 to 1500 nM | IC50 (MLLT3): 150 to 1500 nM

CN1CCCC1c1cn2cc(NC(=O)c3ccn4ccnc4c3)ccc2n1 (racemic) [Example 32, rac-N-[2-(1-methylpyrrolidin-2-yl)imidazo[1,2-a]pyridin-6-yl]imidazo[1,2-a]pyridine-7-carboxamide]
IC50 (MLLT1): 150 to 1500 nM | IC50 (MLLT3): 1500 to 20000 nM

Cc1nc(NC(=O)c2cc3cnn(C)c3cc2F)cn2cc([C@H]3CCCN3C)nc12 [Example 91, 6-fluoro-1-methyl-N-{8-methyl-2-[(2R)-1-methylpyrrolidin-2-yl]imidazo[1,2-a]pyrazin-6-yl}indazole-5-carboxamide]
IC50 (MLLT1): < 150 nM | IC50 (MLLT3): 150 to 1500 nM

CN1CCCC1c1cn2cc(NC(=O)c3ccc4c(c3)c(C3CCNC3)nn4C)ccc2n1 (racemic) [Example 56, rac-1-methyl-N-(2-(1-methylpyrrolidin-2-yl)imidazo[1,2-a]pyridin-6-yl)-3-(pyrrolidin-3-yl)-1H-indazole-5-carboxamide formate]
IC50 (MLLT1): 150 to 1500 nM | IC50 (MLLT3): 150 to 1500 nM

Cc1nn(C)c2cc(C(=O)Nc3cn4cc(C5CC(C)(C)CN5C)nc4cn3)ccc12 (single isomer, unassigned) [Example 81]
IC50 (MLLT1): 1500 to 20000 nM | IC50 (MLLT3): 1500 to 20000 nM

Cc1nc2ccc(C(=O)Nc3ccc4nc(C5CCCN5C)cn4c3)cc2nc1C (racemic) [Example 11, rac-2,3-dimethyl-N-[2-(1-methylpyrrolidin-2-yl)imidazo[1,2-a]pyridin-6-yl]quinoxaline-6-carboxamide]
IC50 (MLLT1): 150 to 1500 nM | IC50 (MLLT3): 150 to 1500 nM

CCC1CC(c2cn3cc(NC(=O)c4ccc5c(C)nn(C)c5c4)ncc3n2)N(C)C1 (single isomer, unassigned) [Example 77, N-{2-[4-ethyl-1-methylpyrrolidin-2-yl]imidazo[1,2-a]pyrazin-6-yl}-1,3-dimethyl-1H-indazole-6-carboxamide]
IC50 (MLLT3): 1500 to 20000 nM

CN1CCCC1c1cn2cc(NC(=O)c3cccc(-n4cccn4)c3)ccc2n1 (racemic) [Example 43, rac-N-[2-(1-methylpyrrolidin-2-yl)imidazo[1,2-a]pyridin-6-yl]-3-(1H-pyrazol-1-yl)benzamide]
IC50 (MLLT1): 150 to 1500 nM | IC50 (MLLT3): 1500 to 20000 nM

CN1CCCCC1c1cn2cc(NC(=O)c3ccc4c(cnn4C)c3)ccc2n1 (single isomer, unassigned) [Example 28]
IC50 (MLLT1): 150 to 1500 nM | IC50 (MLLT3): 150 to 1500 nM

CN1CC2(CCCC2)CC1c1cn2cc(NC(=O)c3ccc4c(cnn4C)c3)ccc2n1 (racemic) [Example 3, rac-1-methyl-N-(2-{2-methyl-2-azaspiro[4.4]nonan-3-yl}imidazo[1,2-a]pyridin-6-yl)indazole-5-carboxamide]
IC50 (MLLT1): 150 to 1500 nM | IC50 (MLLT3): 150 to 1500 nM

CN1CCCC1c1cn2cc(NC(=O)c3ccc4nc[nH]c4n3)ccc2n1 (racemic) [Example 36, rac-N-[2-(1-methylpyrrolidin-2-yl)imidazo[1,2-a]pyridin-6-yl]-3H-imidazo[4,5-b]pyridine-5-carboxamide]
IC50 (MLLT1): 1500 to 20000 nM | IC50 (MLLT3): > 20000 nM

CN1CCC[C@@H]1c1cn2cc(NC(=O)c3ccc4c(C5CC5)nn(C)c4c3)ncc2n1 [Example 71, 3-cyclopropyl-1-methyl-N-{2-[(2R)-1-methylpyrrolidin-2-yl]imidazo[1,2-a]pyrazin-6-yl}-1H-indazole-6-carboxamide]
IC50 (MLLT1): 150 to 1500 nM | IC50 (MLLT3): 150 to 1500 nM

CN1CCCC1c1cn2cc(NC(=O)c3ccc4[nH]ccc4c3F)ccc2n1 (racemic) [Example 53, rac-4-fluoro-N-[2-(1-methylpyrrolidin-2-yl)imidazo[1,2-a]pyridin-6-yl]-1H-indole-5-carboxamide]
IC50 (MLLT1): 150 to 1500 nM | IC50 (MLLT3): 150 to 1500 nM

COc1ccc(-c2nc(C(=O)Nc3ccc4nc(C5CCCN5C)cn4c3)cs2)cc1 (racemic) [Example 38, rac-2-(4-methoxyphenyl)-N-[2-(1-methylpyrrolidin-2-yl)imidazo[1,2-a]pyridin-6-yl]-1,3-thiazole-4-carboxamide]
IC50 (MLLT1): 1500 to 20000 nM | IC50 (MLLT3): 1500 to 20000 nM

CN1CCCC1c1cn2cc(NC(=O)c3ccc4c(cnn4C)c3Cl)ccc2n1 (racemic) [Example 52, rac-4-chloro-1-methyl-N-[2-(1-methylpyrrolidin-2-yl)imidazo[1,2-a]pyridin-6-yl]-1H-indazole-5-carboxamide]
IC50 (MLLT1): 1500 to 20000 nM | IC50 (MLLT3): > 20000 nM

CN1CCCC1c1cn2cc(NC(=O)c3cnc4cc(Cl)ccc4c3)ccc2n1 (racemic) [Example 9, rac-7-chloro-N-[2-(1-methylpyrrolidin-2-yl)imidazo[1,2-a]pyridin-6-yl]quinoline-3-carboxamide]
IC50 (MLLT1): 1500 to 20000 nM | IC50 (MLLT3): 1500 to 20000 nM

CN1CCCC1c1cn2cc(NC(=O)c3cn4ccncc4n3)ccc2n1 (racemic) [Example 34, rac-N-[2-(1-methylpyrrolidin-2-yl)imidazo[1,2-a]pyridin-6-yl]imidazo[1,2-a]pyrazine-2-carboxamide]
IC50 (MLLT1): 1500 to 20000 nM | IC50 (MLLT3): 1500 to 20000 nM

CN1CCC[C@@H]1c1cn2cc(NC(=O)c3cc4cnn(C)c4cc3F)ncc2n1 [Example 101, 6-fluoro-1-methyl-N-[2-[(2R)-1-methylpyrrolidin-2-yl]imidazo[1,2-a]pyrazin-6-yl]indazole-5-carboxamide]
IC50 (MLLT1): < 150 nM | IC50 (MLLT3): 150 to 1500 nM

CN1C[C@H](F)C[C@@H]1c1cn2cc(NC(=O)c3ccc4c(cnn4C)c3)ncc2n1 [Example 105, N-(2-((2R,4R)-4-fluoro-1-methylpyrrolidin-2-yl)imidazo[1,2-a]pyrazin-6-yl)-1-methyl-1H-indazole-5-carboxamide]
IC50 (MLLT1): 150 to 1500 nM | IC50 (MLLT3): 150 to 1500 nM

CN1CCCC1c1cn2cc(NC(=O)c3ccc4cc(F)ccc4c3)ccc2n1 (single isomer, unassigned) [Example 5]
IC50 (MLLT1): 150 to 1500 nM | IC50 (MLLT3): 150 to 1500 nM

Cc1noc2cc(C(=O)Nc3ccc4nc(C5CCCN5C)cn4c3)ccc12 (racemic) [Example 29, rac-3-methyl-N-[2-(1-methylpyrrolidin-2-yl)imidazo[1,2-a]pyridin-6-yl]-1,2-benzoxazole-6-carboxamide]
IC50 (MLLT1): 1500 to 20000 nM | IC50 (MLLT3): 1500 to 20000 nM

COc1cc2c(cnn2C)cc1C(=O)Nc1cn2cc([C@H]3CCCN3C)nc2cn1 [Example 96, 6-methoxy-1-methyl-N-{2-[(2R)-1-methylpyrrolidin-2-yl]imidazo[1,2-a]pyrazin-6-yl}indazole-5-carboxamide]
IC50 (MLLT1): 150 to 1500 nM | IC50 (MLLT3): 1500 to 20000 nM

CCC1CC(c2cn3cc(NC(=O)c4ccc5c(C)nn(C)c5c4)ncc3n2)N(C)C1 (single isomer, unassigned) [Example 80, N-{2-[4-ethyl-1-methylpyrrolidin-2-yl]imidazo[1,2-a]pyrazin-6-yl}-1,3-dimethyl-1H-indazole-6-carboxamide]
IC50 (MLLT3): < 150 nM

CCC1CC(c2cn3cc(NC(=O)c4ccc5c(C)nn(C)c5c4)ncc3n2)N(C)C1 (single isomer, unassigned) [Example 78, N-{2-[4-ethyl-1-methylpyrrolidin-2-yl]imidazo[1,2-a]pyrazin-6-yl}-1,3-dimethyl-1H-indazole-6-carboxamide]
IC50 (MLLT3): 150 to 1500 nM

CCc1nn(C)c2ccc(C(=O)Nc3ccc4nc(C5CCCN5C)cn4c3)cc12 (racemic) [Example 61, rac-3-ethyl-1-methyl-N-[2-(1-methylpyrrolidin-2-yl)imidazo[1,2-a]pyridin-6-yl]-1H-indazole-5-carboxamide]
IC50 (MLLT3): 150 to 1500 nM

CCC1CC(c2cn3cc(NC(=O)c4ccc5c(C)nn(C)c5c4)ncc3n2)N(C)C1 (single isomer, unassigned) [Example 79, N-{2-[4-ethyl-1-methylpyrrolidin-2-yl]imidazo[1,2-a]pyrazin-6-yl}-1,3-dimethyl-1H-indazole-6-carboxamide]
IC50 (MLLT3): < 150 nM
